Data from ChEMBL document CHEMBL1201862, “PubChem BioAssay data set” (2004).
Active and inactive are the calls of the source.

Experiments:
[1] = test system: HEK293; assay: cells; conditions: Homo sapiens
[2] = test system: HEK293; assay: cells; conditions: Homo sapiens; remark: listed apart in the source
[3] = target: Voltage-gated inwardly rectifying potassium channel KCNH2 (Homo sapiens, UniProt Q12809); conditions: Potency;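 further: confirmatory quantitative high-throughput screen measuring inhibition of hERG channel activity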
[4] = target: T1, Cytochrome P450 1A2 (Homo sapiens, UniProt P05177);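 further: PubChem cytochrome P450 panel assay, CYP1A2 panel member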
T1 sequence (P05177 whole entry): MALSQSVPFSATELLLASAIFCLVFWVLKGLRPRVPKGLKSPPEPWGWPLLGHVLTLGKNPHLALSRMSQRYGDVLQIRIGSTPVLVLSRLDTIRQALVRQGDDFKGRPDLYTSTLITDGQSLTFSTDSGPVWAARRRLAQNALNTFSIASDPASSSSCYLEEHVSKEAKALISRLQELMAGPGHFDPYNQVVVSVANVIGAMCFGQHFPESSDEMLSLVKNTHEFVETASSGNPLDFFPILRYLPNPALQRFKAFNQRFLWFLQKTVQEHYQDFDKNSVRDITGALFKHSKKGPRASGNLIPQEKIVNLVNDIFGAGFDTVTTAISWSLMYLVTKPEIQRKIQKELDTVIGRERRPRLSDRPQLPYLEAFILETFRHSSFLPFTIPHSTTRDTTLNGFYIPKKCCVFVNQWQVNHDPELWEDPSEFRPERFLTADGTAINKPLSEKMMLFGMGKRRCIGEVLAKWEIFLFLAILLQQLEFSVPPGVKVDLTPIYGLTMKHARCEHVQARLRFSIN

[5] = target: T2, Cytochrome P450 2C9 (Homo sapiens, UniProt P11712)
[6] = target: Cytochrome P450 2D6 (Homo sapiens, UniProt P10635);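 further: CYP2D6 member of a cytochrome P450 panel assay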
[7] = target: Induced myeloid leukemia cell differentiation protein Mcl-1 (Homo sapiens, UniProt Q07820); assay type: functional
[8] = target: Cytochrome P450 2C19 (Homo sapiens, UniProt P33261); assay: Cytochrome panel assay with activity outcomes. Panel member name: p450-cyp2c19 Compounds with AC50 equal or less than 10 uM are considered active; assay type: functional; conditions: read-out: AC50
[9] = target: T2, Cytochrome P450 2C9; remark: listed apart in the source
[10] = target: T3, Aryl hydrocarbon receptor (Homo sapiens, UniProt P35869); conditions: Potency;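 further: confirmatory quantitative high-throughput screen measuring activation of the AhR signaling pathway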
T3 sequence (P35869 whole entry): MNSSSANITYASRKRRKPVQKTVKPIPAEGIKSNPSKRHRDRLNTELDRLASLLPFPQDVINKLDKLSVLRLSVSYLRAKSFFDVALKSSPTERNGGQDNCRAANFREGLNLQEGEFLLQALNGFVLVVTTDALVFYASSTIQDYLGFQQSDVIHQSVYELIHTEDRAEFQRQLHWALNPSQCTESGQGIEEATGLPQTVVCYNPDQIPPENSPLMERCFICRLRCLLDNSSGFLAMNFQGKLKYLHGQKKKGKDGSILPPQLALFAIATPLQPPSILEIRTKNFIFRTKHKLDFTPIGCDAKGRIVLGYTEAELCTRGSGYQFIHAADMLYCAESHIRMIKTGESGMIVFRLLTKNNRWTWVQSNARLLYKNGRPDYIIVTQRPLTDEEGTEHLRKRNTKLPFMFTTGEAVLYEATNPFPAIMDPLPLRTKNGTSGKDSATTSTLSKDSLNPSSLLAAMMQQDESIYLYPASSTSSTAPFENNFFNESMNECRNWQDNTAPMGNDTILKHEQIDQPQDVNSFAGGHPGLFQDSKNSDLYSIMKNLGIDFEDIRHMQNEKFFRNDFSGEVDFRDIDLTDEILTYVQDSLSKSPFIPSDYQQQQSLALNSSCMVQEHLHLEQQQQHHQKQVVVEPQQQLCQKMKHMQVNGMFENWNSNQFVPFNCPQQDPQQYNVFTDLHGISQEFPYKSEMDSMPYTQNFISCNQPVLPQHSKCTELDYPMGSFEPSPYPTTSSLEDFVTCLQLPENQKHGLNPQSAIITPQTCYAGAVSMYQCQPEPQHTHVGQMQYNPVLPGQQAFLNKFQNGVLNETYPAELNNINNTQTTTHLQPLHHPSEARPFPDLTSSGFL

[11] = microbe, parasite or virus in culture; assay type: functional; conditions: Mycobacterium tuberculosis

Voltage-gated inwardly rectifying potassium channel KCNH2, sequence (Q12809 whole entry): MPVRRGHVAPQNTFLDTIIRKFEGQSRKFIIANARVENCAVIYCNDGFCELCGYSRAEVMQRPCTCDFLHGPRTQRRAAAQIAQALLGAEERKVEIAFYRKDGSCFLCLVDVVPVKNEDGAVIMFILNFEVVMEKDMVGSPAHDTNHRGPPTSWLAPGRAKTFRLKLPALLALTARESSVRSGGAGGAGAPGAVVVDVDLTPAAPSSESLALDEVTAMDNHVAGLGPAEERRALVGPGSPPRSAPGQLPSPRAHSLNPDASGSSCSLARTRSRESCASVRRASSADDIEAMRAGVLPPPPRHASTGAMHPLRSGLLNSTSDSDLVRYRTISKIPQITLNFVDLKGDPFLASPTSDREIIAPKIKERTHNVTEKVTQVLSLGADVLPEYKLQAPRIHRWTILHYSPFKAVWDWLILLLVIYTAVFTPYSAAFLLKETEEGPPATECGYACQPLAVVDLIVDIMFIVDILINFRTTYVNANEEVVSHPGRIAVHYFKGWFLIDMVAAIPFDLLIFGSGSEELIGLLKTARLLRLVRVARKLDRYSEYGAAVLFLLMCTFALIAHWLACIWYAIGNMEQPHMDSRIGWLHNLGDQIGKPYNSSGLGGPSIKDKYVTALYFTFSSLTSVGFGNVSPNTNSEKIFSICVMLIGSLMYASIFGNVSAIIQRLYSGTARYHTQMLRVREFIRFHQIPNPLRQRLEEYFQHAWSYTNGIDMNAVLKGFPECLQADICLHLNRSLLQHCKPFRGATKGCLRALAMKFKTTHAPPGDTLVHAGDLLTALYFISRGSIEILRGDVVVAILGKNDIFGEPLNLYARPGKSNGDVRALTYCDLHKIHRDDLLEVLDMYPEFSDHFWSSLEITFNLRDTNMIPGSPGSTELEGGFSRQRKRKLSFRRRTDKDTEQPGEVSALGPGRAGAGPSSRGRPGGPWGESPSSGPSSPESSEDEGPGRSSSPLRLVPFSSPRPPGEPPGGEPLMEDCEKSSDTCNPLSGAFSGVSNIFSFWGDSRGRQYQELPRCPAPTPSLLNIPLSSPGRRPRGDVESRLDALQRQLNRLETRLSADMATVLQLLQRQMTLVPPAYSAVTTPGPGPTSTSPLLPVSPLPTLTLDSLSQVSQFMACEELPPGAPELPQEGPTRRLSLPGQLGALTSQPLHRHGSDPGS
T2 sequence (P11712 whole entry): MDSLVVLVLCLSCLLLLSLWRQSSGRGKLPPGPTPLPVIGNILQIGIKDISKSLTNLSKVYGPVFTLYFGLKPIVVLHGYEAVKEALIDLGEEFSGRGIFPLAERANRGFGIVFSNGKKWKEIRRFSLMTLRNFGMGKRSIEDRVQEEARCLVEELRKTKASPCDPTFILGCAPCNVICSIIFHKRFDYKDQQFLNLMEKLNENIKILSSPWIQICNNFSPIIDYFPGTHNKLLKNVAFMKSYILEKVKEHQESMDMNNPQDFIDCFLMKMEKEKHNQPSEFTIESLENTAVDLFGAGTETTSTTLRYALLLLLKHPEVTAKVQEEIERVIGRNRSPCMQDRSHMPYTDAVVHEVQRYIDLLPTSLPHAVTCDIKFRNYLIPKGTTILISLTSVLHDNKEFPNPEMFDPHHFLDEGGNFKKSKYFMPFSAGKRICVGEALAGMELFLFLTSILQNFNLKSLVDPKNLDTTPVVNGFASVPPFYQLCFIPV
Cytochrome P450 2D6, sequence (P10635 whole entry): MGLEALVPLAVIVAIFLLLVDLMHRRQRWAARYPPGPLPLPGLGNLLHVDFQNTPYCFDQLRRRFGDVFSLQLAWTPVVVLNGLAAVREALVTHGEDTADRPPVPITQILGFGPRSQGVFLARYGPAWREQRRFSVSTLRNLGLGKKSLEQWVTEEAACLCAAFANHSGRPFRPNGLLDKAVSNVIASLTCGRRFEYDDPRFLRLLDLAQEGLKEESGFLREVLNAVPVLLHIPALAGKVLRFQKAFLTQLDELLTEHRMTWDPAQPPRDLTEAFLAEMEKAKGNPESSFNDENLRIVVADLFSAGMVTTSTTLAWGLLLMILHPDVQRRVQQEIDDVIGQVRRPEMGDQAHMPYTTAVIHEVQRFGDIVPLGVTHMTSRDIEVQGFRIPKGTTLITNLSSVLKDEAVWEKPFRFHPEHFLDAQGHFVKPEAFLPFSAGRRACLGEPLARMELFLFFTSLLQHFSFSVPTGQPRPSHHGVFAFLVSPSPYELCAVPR
Cytochrome P450 2C19, sequence (P33261 whole entry): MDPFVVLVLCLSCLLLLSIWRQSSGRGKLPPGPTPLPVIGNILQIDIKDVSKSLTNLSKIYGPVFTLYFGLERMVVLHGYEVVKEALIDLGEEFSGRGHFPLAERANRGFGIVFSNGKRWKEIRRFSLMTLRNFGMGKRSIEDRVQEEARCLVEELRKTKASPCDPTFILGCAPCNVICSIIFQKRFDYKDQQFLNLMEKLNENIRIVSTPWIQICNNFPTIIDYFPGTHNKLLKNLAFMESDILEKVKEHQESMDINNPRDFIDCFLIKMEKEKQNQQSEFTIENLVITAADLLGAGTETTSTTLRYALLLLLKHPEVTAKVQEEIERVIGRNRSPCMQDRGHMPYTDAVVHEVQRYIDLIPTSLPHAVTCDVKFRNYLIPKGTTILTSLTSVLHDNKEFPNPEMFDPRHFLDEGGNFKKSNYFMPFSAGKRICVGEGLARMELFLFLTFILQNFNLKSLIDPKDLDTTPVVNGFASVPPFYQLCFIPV
Induced myeloid leukemia cell differentiation protein Mcl-1, sequence (Q07820 whole entry): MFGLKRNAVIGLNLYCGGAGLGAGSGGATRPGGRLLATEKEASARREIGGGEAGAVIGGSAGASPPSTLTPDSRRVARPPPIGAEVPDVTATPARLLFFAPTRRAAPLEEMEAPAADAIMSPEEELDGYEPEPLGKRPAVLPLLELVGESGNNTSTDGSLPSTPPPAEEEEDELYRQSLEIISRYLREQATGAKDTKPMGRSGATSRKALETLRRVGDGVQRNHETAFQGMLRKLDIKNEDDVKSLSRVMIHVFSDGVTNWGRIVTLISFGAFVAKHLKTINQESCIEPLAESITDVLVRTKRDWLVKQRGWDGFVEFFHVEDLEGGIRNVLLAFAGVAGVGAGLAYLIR

## COc1ccc(CC(C)NCC(O)c2ccc(O)c(NC=O)c2)cc1 (centres undefined)
[1]
  EC50: > 59.6 µM (inactive)
[2]
  EC50: > 59.6 µM (inactive)

## CCCCCCCCCCCCCC(=O)O[C@@H]1[C@@H](C)[C@@]2(O)[C@@H](C=C(CO)C[C@@]3(O)C(=O)C(C)=C[C@@H]23)C2C(C)(C)[C@@]21OC(C)=O (some centres undefined)
[3]
  AC50: 0.112 µM (inconclusive)

## CCCCCCN(CCCCCC)C(=O)Cc1c(-c2ccc(F)cc2)[nH]c2ccccc12
[4]
  AC50: 15.8 µM (inconclusive)
[5]
  AC50: 5.01 µM (inconclusive)
[3]
  AC50: 8.91 µM (inconclusive)

## COc1ccc2[nH]c([S+]([O-])Cc3ncc(C)c(OC)c3C)nc2c1 (centres undefined) [OMEPRAZOLE]
[4]
  AC50: 31.6 µM (inconclusive)
[6]
  AC50: inactive
[7]
  IC50: 3.14 µM (active)
[8]
  AC50: 2.51 µM (active)
[9]
  AC50: inactive
[10]
  AC50: 20 µM (inconclusive)

## CCCCCC(O)c1cccc(OCc2ccc3ccccc3n2)c1 (centres undefined) [REV-5901]
[11]
  CC50: > 40 µM (active)
[3]
  AC50: 35.5 µM (inconclusive)
